Measured values from patent publication US20090093499A1, “Pharmaceutical composition” (LEK PHARMACEUTICALS D.D., priority 2005, published 2009).

Assay: Stress stability of the bulk agent and its mixtures with excipients (degradation products by HPLC)
Type: physicochemical
Protocol: The bulk agent is subjected to stress conditions, such as elevated temperature (40° C. and above), elevated humidity (75% or higher relative humidity, open dish conditions), oxygen atmosphere or solutions with different pH. An HPLC analysis, capable of resolving the agent and its degradation products is then employed, to quantify the amount (given as a mass percentage relative to the agent) of degradation products in the stressed samples. Good chromatographic resolution can be achieved on a C18 reversed phase column with acidic phosphate buffer and an increasing gradient of acetonitrile and tetrahydrofuran. Degradation products are quantified using UV detection at 242 nm. The reporting limit of the degradation products has been set at 0.05%. The % reported for HPLC analysis are in general area %.

[1] = aqueous solution of the agent, buffered to pH = 5 at room temperature (24 hours)
[2] = under oxygen at 60° C. for 14 days

## (E)-7-[4-(4-fluorophenyl)-6-isopropyl-2-[methyl(methylsulfonyl)amino]pyrimidin-5-yl]-(3R, 5S)-3,5-dihydroxyhept-6-enoic acid hemicalcium salt [the agent]
[1]
  amount of lactone (%): 2.30%
  amount of oxidation product (%): <0.05%
[2]
  amount of lactone (%): 0.17%
  amount of oxidation product (%): 0.71%
